Measurements reported in patent US9233978B2, “6-fused heteroaryldihydropyrimidines for the treatment and prophylaxis of hepatitis B virus infection” (Hoffmann-La Roche Inc., priority 2014, dated 2016).
In brackets after ≈: the same amount, converted by molar mass. Read-outs that look alike come from different tables or passages of the source.

What was measured:
HBV [1] = conditions: HBV infected transgenic mouse or humanized mouse models; cited from earlier work
Lysa solubility = type: physicochemical; conditions: 0.05 M phosphate buffer (pH 6.5); for solubility thermodynamic: phosphate buffer, pH 6.5, aqueous buffer, thermodynamic from solid
Outline: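 Duplicate samples dried from 10 mM DMSO stocks, taken up in 0.05 M phosphate buffer pH 6.5, stirred 1 h, shaken 2 h and left overnight. Filtrate and 1/10 dilution quantified by direct UV or HPLC-UV, in μg/mL; above 80% of the calculated maximum, reported as greater than that value.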

HBV [2] = assay: Anti-HBV activity in vitro, HepG2.2.15 cells, extracellular HBV DNA by qPCR; type: cell-based; conditions: HepG2.2.15 cells, HBV replication inhibited by 50%, extracellular HBV DNA by qPCR, five days after compound treatment, read-out: EC50
Outline: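 Extracellular HBV DNA in culture supernatant was measured by qPCR after nucleic acid extraction. The supernatant came from constitutively replicating HepG2.2.15 cells exposed for five days to half-log-diluted compounds, with DMSO at 0.5% final. Cells had been plated overnight at 37 °C beforehand.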

[3] = Human microsomal metabolic stability; type: in vitro ADME; conditions: human microsomes 0.5 mg/mL, 1 μM test compound, NADPH, 37° C., pH 7.4, 0-30 minutes
Outline: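 1 μM compound with 0.5 mg/mL human liver microsomal protein in 100 mM phosphate pH 7.4 at 37° C, started with 1 mM NADPH or a NADPH-regenerating system. Sampled at 0–30 min, quenched in cold methanol with tolbutamide internal standard; remaining parent quantified by LC-MS/MS.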

CYP3A4 = assay: Cytochrome P450 induction screening assay, mRNA induction in human cryopreserved hepatocytes; type: in vitro ADME; conditions: CYP3A4 mRNA relative induction, 24 hours, test compound up to 10 μM
Procedure: Human cryopreserved hepatocytes (Life Technologies, Carlsbad, USA) were thawed and cultured in collagen I coated 96-well plates with a density of 52,000 cells/well. After attachment, medium was changed and cells were pre-cultured overnight in hepatocyte maintenance medium (HMM; Lonza, Switzerland).
Test compounds were dosed to the cells next morning at an indicated concentration (up to 10 μM) in HMM culture media containing gentamycin and a constant 0.1% DMSO. Similarly, dilutions of the positive inducer compounds omeprazole (prototypical inducer of human CYP1A2; final concentrations: 1 and 10 μM), phenobarbital (prototypical inducer of human CYP2B6; final concentrations: 100 and 1000 μM) and rifampicin (prototypical inducer of human CYP3A4; final concentrations: 1 and 10 μM) were prepared from 1000 fold DMSO stock solutions in HMM containing gentamycin. Medium change was then performed and cells were exposed for 24 hours to test compounds, positive inducer compounds, or vehicle (0.1% DMSO), respectively.
At the end of the compound exposure period, medium was removed and cells lysed using 100 μL/well MagNA Pure LC RNA isolation tissue lysis buffer (Roche Diagnostics AG, Rotkreuz, Switzerland). Plates were then sealed and frozen at −80° C. until further workup.
mRNA isolation was performed using the MagNA Pure 96 system (Roche Diagnostics AG, Rotkreuz, Switzerland) and the respective cellular RNA large volume kit (Roche Diagnostics AG, Rotkreuz, Switzerland) from thawed samples diluted 1:1 with PBS. The volume of the cell lysis and an elution volume of 100 μL were used. 20 μl of the resulting mRNA suspension was then used for reverse transcription using 20 μl of the transcript or first stand cDNA synthesis kit (Roche prime Supply, Mannheim, Germany). The resulting cDNA was diluted with 40 μl of H2O before using for qRT-PCR. qRT-PCR was performed by using the forward and the reverse primer, the corresponding UPL (all from Microsynth, Balgach, Switzerland) and the Taqman Fast advanced master mix (Applied Biosystems), on an ABI 7900 machine (Applied Biosystems).
qRT-PCR Ct-values for the respective P450s were put into relation to the Ct-value of RN18S1 (microsynth, Balgach, Switzerland) of the same sample. Doing so, a respective Δct-value was calculated. Using the average of all Δct-values for the vehicle control samples, a ΔΔct-value was calculated for each sample (ΔΔct-value(sample)=Δct-value(sample)−average of Δct-value of all vehicle controls). The fold induction of the respective sample was calculated as 2^(−ΔΔct). The individual fold induction values were then averaged per treatment condition (usually n=3 biological replicates).
Relative induction values to the respective positive inducer compound condition (10 μM omeprazole for CYP1A2; 1000 μM Phenobarbital for CYP2B6; 10 μM rifampicin for CYP3A4) were then calculated from the fold induction values as follows: Relative induction (%)=100×(T−V)/(P−V)

HepDE19 cells = assay: Cytotoxicity in HepDE19 cells (CCK-8) and selectivity index; type: cell-based; conditions: CC50 (HepDE19) value / EC50 (HepG2.2.15) value
Outline: (§1)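 HepDE19 cells (DMEM-F12, 10% FBS) were treated with compound for five days, then given CCK-8 for 2 h at 37 °C and read at OD450 and OD630. CC50 is the concentration killing 50% of host cells. Selectivity index is CC50/EC50.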

[4] = as above; type: cell-based; conditions: human, HepDE19 cells; CCK-8 cell viability; five days after treatment
Outline: as §1

[5] = Hepatitis B virus, HepG2.2.15, 120 h

| SMILES | in vivo efficacy (HBV DNA reduction) (HBV [1]) | solubility thermodynamic (Lysa solubility) [µg/mL] | EC50 (HBV [2]; [5]) [nM] | Human Microsomal Clearance [3] [mL/min/kg] | % of Positive control (10 μM Rifampicin) (CYP3A4) [%] | Selectivity index (CC50/EC50) (HepDE19 cells) | CC50 at 5 days [4] [nM] | Lysa (Lysa solubility) [µg/mL] | EC50 (HBV [2]) [nM] |
| --- | --- | --- | --- | --- | --- | --- | --- | --- | --- |
| COC(=O)C1=C(C)NC(c2ncc(F)cc2F)=N[C@H]1c1ccc(F)cc1Cl [Bay 41-4109] | demonstrated in vivo efficacy with HBV DNA reduction |  |  |  |  |  |  |  |  |
| COC(=O)C1=C(CN2CCN3C(=O)N(CC4(C(=O)O)CCC4)C[C@@H]3C2)NC(c2nccs2)=N[C@H]1c1ccc(F)cc1Cl [Example 59, (R)-6-[(S)-2-(1-Carboxy-cyclobutylmethyl)-3-oxo-hexahydro-imidazo[1,5-a]pyrazin-7-ylmethyl]-4-(2-chloro-4-fluoro-phenyl)-2-thiazol-2-yl-1,4-dihydro-pyrimidine-5-carboxylic acid methyl ester] |  | > 685 | 11 | 2.3 | 2.2 | >9091 | > 100000 |  |  |
| COC(=O)C1=C(CN2CCN3C(=O)N(C4CCC(C(=O)O)CC4)C[C@@H]3C2)NC(c2nccs2)=N[C@H]1c1ccc(F)cc1Cl (stereo partly drawn) [Example 73, 4-[(8aS)-7-[[(4R)-4-(2-chloro-4-fluoro-phenyl)-5-methoxycarbonyl-2-thiazol-2-yl-1,4-dihydropyrimidin-6-yl]methyl]-3-oxo-5,6,8,8a-tetrahydro-1H-imidazo[1,5-a]pyrazin-2-yl]cyclohexanecarboxylic acid] |  |  |  | 8.1 | 0 | 7778 | 70000 | 564 | 9 |
| CCOC(=O)C1=C(CN2CCN3C(=O)N(CC(C)(C)C(=O)O)C[C@@H]3C2)NC(c2nccs2)=N[C@H]1c1cccc(F)c1C [Example 76, 3-[(8aS)-7-[[(4S)-5-ethoxycarbonyl-4-(3-fluoro-2-methyl-phenyl)-2-thiazol-2-yl-1,4-dihydropyrimidin-6-yl]methyl]-3-oxo-5,6,8,8a-tetrahydro-1H-imidazo[1,5-a]pyrazin-2-yl]-2,2-dimethyl-propanoic acid] |  | 565 (≈ 944 µM) | 7 | 0.8 | 1.3 | >14286 | > 100000 |  |  |
